Measured values published in patent US20070054887A1, “Methods for treating bladder dysfunction” (BioXell S.p.A, priority 2003, published 2007).
“And” between values parts separate entries of the source, which are not always exact repeats. Identical values can stand only once.

What was measured:
human bladder cells = experiment: inhibition of basal human bladder cell growth; type: cell-based
[1] = maximum tolerated dose (MTD) in rats; type: in vivo; details: rat, in vivo, read-out: MTD
Excerpt: The maximum tolerated dose (MTD) in rats is also listed for each compound.

[2] = test system: rats with CYP-induced cystitis; experiment: cyclophosphamide (CYP) induced chronic cystitis in rats: conscious cystometry; type: in vivo, Wistar rats; parameters: amplitude of NVBC (amplitude of non-voiding bladder contraction): unit not given here
Excerpt: The rat model of chemical cystitis induced by intraperitoneal injection of CYP has been well accepted. CYP is used in clinical practice in the treatment of a number of malignant tumors. One of its metabolites, acrolein, is excreted in urine in large concentrations causing hemorrhagic cystitis associated with symptoms of urinary frequency, urgency and pelvic pain. The inflammatory process is characterized by changes in gross histology of bladder, increase in number and distribution of inflammatory cell infiltrates (mast cells, macrophage, PMNs), cyclo-oxygenase-2 expression and prostaglandin production, growth factor and cytokine production. The rat model of chemical cystitis closely resembles interstitial cystitis, a chronic, painful urinary bladder syndrome and has been used for the testing of therapeutic agents in the past.
This model was used to test the effects of 1,25-dihydroxyvitamin D3 analogue in rats with CYP-induced cystitis. The effects of the treatment on the cystometric parameters in a conscious freely moving rat with CYP-induced cystitis were monitored. The following cystometric parameters were recorded in each animal:
Animals: Wistar rats weighing 125-175 g were used. […] Following recovery all animals received three intraperitoneal injections of CYP and subsequently were divided into the treatment and sham control groups.
Treatment group: Rats treated with oral 1,25-dihydroxyvitamin D3 analogue 1,3-di-O-acetyl-1,25-dihydroxy-16,23Z-diene-26,27-hexafluoro-19-nor-cholecalciferol (“Compound C”) for 14 days (daily dose of 0.1 μg/kg) [drawing 138]
Cystometry was performed 24 hours following the last dose of the drug or vehiculum on awake freely moving animals.
A lower midline abdominal incision was performed under general inhalation anesthesia (isoflurine with O2) and polyethylene tubing (PE-50, Clay Adams, Parsippany, N.J.) with the end flared by heat was inserted into the dome of the bladder and secured in place with a 6-0 prolene purse string suture. The distal end of the tubing was heat-sealed, tunneled subcutaneously and externalized at the back of the neck, out of the animal's reach. Abdominal and neck incisions were closed with 4-0 nylon sutures.
Following recovery (5 days) subject animals underwent three intraperitoneal injections of CYP (Sigma Chemical, St. Louis, Mo.; 75 mg/kg each, intraperitoneal) over the period of nine days. On the tenth day following the first CYP injection the sham control animals received the vehicle only, whereas the experimental group were treated with the 1,25-dihydroxyvitamin D3 analogue 1,3-di-O-acetyl-1,25-dihydroxy-16,23Z-diene-26,27-hexafluoro-19-nor-cholecalciferol “Compound C” (delivered using gavage). Two weeks following the initiation of the treatment animals underwent a conscious cystometrogram to assess the function of the urinary bladder.
An animal was placed unrestrained in a cage and the catheter was connected via a T-tube to a pressure transducer (Grass® Model PT300, West Warwick, R.I.) and microinjection pump (Harvard Apparatus 22, South Natick, Mass.). A 0.9% saline solution was infused at room temperature into the bladder at a rate of 10 ml/h. Intravesical pressure was recorded continuously using a Neurodata Acquisition System (Grass® Model 15, Astro-Med, Inc, West Warwick, R.I.). At least three reproducible micturition cycles were recorded after the initial stabilization period of 25-30 min.

BPH cells = details: previously found, cited from earlier work; for BPH cell proliferation: also counteracted mitogenic activity of KGF and IGFI
hBC = experiment: androgen-stimulated hBC growth, 48 h incubation; type: cell-based, human; details: DHT 10 nM, Compound A 1 nM, finasteride 1 nM, FIG. 5
Excerpt: Results are expressed as percentage variation (mean±SEM) over their relative controls and derived from at least three different experiments obtained from three distinct hBC cell preparations. *P<0.05 (vs. control); °P<0.01 (vs. androgen-treated cells).

[3] = drug treated animals versus vehicle, 0.1 μg/kg oral 14 days
[4] = oral 0.1 μg/kg daily for 14 days, individual rats, three micturition cycles each

Compound: CC(=O)OC1C/C(=C/C=C2\CCC[C@]3(C)C(C(C)C/C=C\C(O)(C(F)(F)F)C(F)(F)F)=CCC23)C[C@@H](OC(C)=O)C1 (stereo partly drawn) [Compound C, 1,3-di-O-acetyl-1,25-dihydroxy-16,23Z-diene-26,27-hexafluoro-19-nor-cholecalciferol]
- IC50 (human bladder cells; Homo sapiens): 39.8 nM
- MTD [1]: 0.1 µg/kg
- amplitude of non-voiding bladder contractions, change versus control [2, 3]: Dramatic reductions
- bladder capacity, change versus control [2, 3]: did not result in a change
- filling pressure, change versus control [2, 3]: statistically significant reductions
- number of non-voiding bladder contractions, change versus control [2, 3]: Dramatic reductions
- threshold pressure, change versus control [2, 3]: statistically significant reductions
- Bl. Cap. (bladder capacity) ([2]; oral 0.1 μg/kg daily for 14 days, individual rats RB7, RB13, RB15, three micturition cycles each): 1.9 ml and 1.3 ml (2×) and 2.5 ml and 1.5 ml and 0.7 ml (2×) and 0.8 ml and 1.4 ml
- # of NVBC (number of non-voiding bladder contractions) [2, 4]: 4 and 8 (2×) and 0 (6×)
- FP (filling pressure) [2, 4]: 15 cmH2O and 14 cmH2O (3×) and 12 cmH2O and 11 cmH2O and 10 cmH2O and 13 cmH2O (2×)
- MP (micturition pressure) [2, 4]: 105 cmH2O and 97 cmH2O (2×) and 90 cmH2O and 100 cmH2O and 108 cmH2O and 98 cmH2O and 101 cmH2O and 104 cmH2O
- TP (threshold pressure) [2, 4]: 16 cmH2O and 17 cmH2O and 14 cmH2O (4×) and 12 cmH2O and 11 cmH2O and 15 cmH2O
- amplitude of NVBC (amplitude of non-voiding bladder contraction) [2, 4]: 10 and 11 (2×) and 0 (6×)

Compound: C=C1/C(=C\C=C2/CCC[C@]3(C)C([C@H](C)CC#CC(C)(C)O)=CC[C@@H]23)C[C@@H](O)C[C@@H]1O [Compound B, 1,25-dihydroxy-16-ene-23-yne cholecalciferol]
- inhibition of bladder cell growth (human bladder cells; stimulated and basal bladder cell growth, FIG. 4, in some cases significantly greater than anti-androgens such as finasteride): demonstrated
- BPH cell proliferation (BPH cells): inhibited
- apoptosis in BPH cells (BPH cells; unstimulated and KGF-stimulated BPH cells): induced

Compound: CC(C)(C)NC(=O)[C@H]1CC[C@H]2[C@@H]3CC[C@H]4NC(=O)C=C[C@]4(C)[C@H]3CC[C@]12C [finasteride, reference compound]
- hBC proliferation stimulated by the androgen DHT (hBC): no significant effect

Compound: C=C1CC[C@H](O)C/C1=C/C=C1\CCC[C@]2(C)[C@@H]([C@H](C)CCCC(C)C)CC[C@@H]12 [vitamin D3, reference compound]
- BPH cell proliferation (BPH cells): inhibited
